Source: patent US7075582B2, “Methods for identifying and using MarR family polypeptide binding compounds” (Paratek Pharmaceuticals, Inc., priority 2001, dated 2006)

Tests used:
MarR [1] = target: T1, MarR (Escherichia coli, UniProt P27245); conditions: salicylate at millimolar concentrations; cited from earlier work
MarR [2] = target: T1, MarR; conditions: salicylate at millimolar concentrations; cited from earlier work; remark: listed apart in the source
[3] = target: MarR (wild type, Escherichia coli), one subunit of the MarR homodimer (E. coli); assay: X-ray crystal structure, MarR-salicylate co-crystal

T1 sequence (P27245 whole entry): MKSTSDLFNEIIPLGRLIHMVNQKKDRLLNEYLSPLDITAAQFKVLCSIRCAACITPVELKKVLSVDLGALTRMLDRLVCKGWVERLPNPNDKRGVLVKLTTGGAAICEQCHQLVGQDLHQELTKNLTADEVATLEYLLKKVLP

O=C([O-])c1ccccc1O.[Na+] [sodium salicylate]
MarR activity in vitro (MarR [1]): inhibit MarR activity | MarR activity in whole cells (MarR [2]): inhibit MarR activity

MarR (wild type, Escherichia coli), one subunit of the MarR homodimer
buried surface area (N-/C-terminal hydrophobic core) [3]: 3570 Å^2 | total buried surface area for the whole dimer [3]: 3700 Å^2
